Laboratory results as given in publication PMC4994063, “Harnessing Fluorine–Sulfur Contacts and Multipolar Interactions for the Design of p53 Mutant Y220C Rescue Drugs” (ACS Chemical Biology, 2016).
Several values for one entry are separate records, joined by “and”; a condition that tells them apart may be missing. Equal entries are not always repeated. Where two headings read alike, the source gives them in different places.

Assays:
p53-Y220C DBD [1] = molecular target: T1, p53-Y220C DBD (Homo sapiens, UniProt P04637, M133L/N239Y/N268D/V203A/Y220C); assay: Isothermal titration calorimetry (ITC); assay type: binding; details: for Kd: 50 μM protein, 25 mM KPi pH 7.2, 150 mM NaCl, 1 mM TCEP, 5% DMSO; for increase in affinity (ITC KD) compared to the nonfluorinated parent compounds (1 and 5): 4 vs 1, 6 vs 5; for improvement of free energy of binding compared with parent compounds: at 293 K, vs PhiKan083 (1) and 5
T1 construct: Stabilized p53-Y220C DBD (residues 94–312) was expressed and purified as previously described; made in house
Description: We tested PhiKan083 (1) and analogues 2–6 for their stabilization of the p53-Y220C DNA-binding domain (DBD) using differential scanning fluorimetry (DSF; Table 1). The N-2,2,2-trifluoroethyl substituted carbazoles 4 and 6 increased stability of the p53-Y220C DBD by 1.2 K at a compound concentration of 125 μM, showing a clear improvement over their N-ethyl substituted counterparts PhiKan083 (1) and 5 (ΔTm = 0.8 K and ΔTm = 0.6 K, respectively).
ITC experiments were conducted as described.[26] Samples for the cell unit contained 50 μM protein in a 25 mM KPi (pH 7.2), 150 mM NaCl, 1 mM TCEP, and 5% (v/v) DMSO assay buffer. The syringe contained 2–5 mM compound in the same assay buffer.

[2] = molecular target: T2, p53-Y220C DNA-binding domain (DBD) (Homo sapiens, UniProt P04637, M133L/N239Y/N268D/V203A/Y220C); assay: Differential scanning fluorimetry (DSF), stabilization of p53-Y220C DBD; details: 8 μM stabilized p53-Y220C DBD, 25 mM KPi pH 7.2, 5% DMSO, triplicate; for ΔTm at 125 µM: pH 7.2, compound 125 μM; for DSF ΔTm at 125 μM: compound 125 μM
T2 construct: Stabilized p53-Y220C DBD (residues 94–312) was expressed and purified as previously described; made in house
Description: We tested […]083 (1) and analogues 2-6 for their stabilization of the p53-Y220C DNA-binding domain (DBD) using differential scanning fluorimetry (DSF; Table 1). The N-2,2,2-trifluoroethyl substituted carbazoles 4 and 6 increased stability of the p53-Y220C DBD by 1.2 K at a compound concentration of 125 μM, showing a clear improvement over their N-ethyl substituted counterparts […]083 (1) and 5 (ΔTm = 0.8 K and ΔTm = 0.6 K, respectively). […] DSF was performed as described.[26] Briefly, melting temperatures (Tm) were determined using 8 μM protein (stabilized p53-Y220C DBD) and 10 × SYPRO orange (Life Technologies) in a 25 mM KPi (pH 7.2), 150 mM NaCl, and 1 mM TCEP assay buffer at a final DMSO concentration of 5% (v/v). ΔTm values were calculated as ΔTm= Tm (protein + compound) - Tm (protein)). All samples were measured in triplicate.

p53-Y220C DBD [3] = molecular target: T1, p53-Y220C DBD; design: method as in Boeckler et al. (24); details: data taken from the literature; ref Boeckler et al. (24); read-out: ITC KD; cited from earlier work

Row | Structure (SMILES) | ligand efficiency (LE) (p53-Y220C DBD [1]) | Kd (p53-Y220C DBD [1]) | increase in affinity (ITC KD) compared to the nonfluorinated parent compounds (1 and 5) (p53-Y220C DBD [1]) | improvement of free energy of binding compared with parent compounds (p53-Y220C DBD [1]) | ΔTm at 125 µM [2] | drop in affinity due to additional methyl group at the amine (p53-Y220C DBD [1]; 5 vs 1) | DSF ΔTm at 125 μM [2] | Kd (p53-Y220C DBD [3])
1 | CNCc1ccc2c(c1)c1ccccc1n2CC(F)(F)F [Compound 4, 1-(9-(2,2,2-Trifluoroethyl)-9H-carbazol-3-yl)-N-methylmethanamine] | 0.3 kcal mol^–1 atom^–1 | 28.3 µM and 28 µM | 5 fold | approximately −0.9 kcal/mol | 1.2 °C | – | – | –
2 | CCn1c2ccccc2c2cc(CNC)ccc21 [Compound 1, 1-(9-ethyl-9H-carbazole-3-yl)-N-methylmethanamine] | – | – | – | – | – | – | – | 124 µM
3 | CNCc1ccc2c(c1)c1ccccc1n2CC(F)F [Compound 3, 1-(9-(2,2-Difluoroethyl)-9H-carbazol-3-yl)-N-methylmethanamine] | – | 101 µM | – | – | 0.4 °C | – | 0.3 K | –

More lines, main results first:

Row | ligand efficiency (LE) (p53-Y220C DBD [1]) | Kd (p53-Y220C DBD [1]) | increase in affinity (ITC KD) compared to the nonfluorinated parent compounds (1 and 5) (p53-Y220C DBD [1]) | improvement of free energy of binding compared with parent compounds (p53-Y220C DBD [1]) | ΔTm at 125 µM [2] | drop in affinity due to additional methyl group at the amine (p53-Y220C DBD [1]; 5 vs 1) | DSF ΔTm at 125 μM [2] | Structure (SMILES) | Kd (p53-Y220C DBD [3])
4 | – | 169 µM | – | – | 0.6 °C | 30% | – | CCn1c2ccccc2c2cc(CN(C)C)ccc21 [Compound 5, 1-(9-Ethyl-9H-carbazol-3-yl)-N,N-dimethylmethanamine] | –
5 | – | 138 µM | – | – | 0.3 °C | – | 0.4 K | CNCc1ccc2c(c1)c1ccccc1n2CCF [Compound 2, 1-(9-(2-Fluoroethyl)-9H-carbazol-3-yl)-N-methylmethanamine] | –
6 | 0.3 kcal mol^–1 atom^–1 | 37.2 µM and 37 µM | 5 fold | approximately −0.9 kcal/mol | 1.2 °C | – | – | CN(C)Cc1ccc2c(c1)c1ccccc1n2CC(F)(F)F [Compound 6, 1-(9-(2,2,2-Trifluoroethyl)-9H-carbazol-3-yl)-N,N-dimethylmethanamine] | –
